# Reference: US20250171462A1 (NICO Therapeutics, Inc., priority 2022, published 2025)
# Read-outs that look alike come from different tables or passages of the source.
# Molecular target: T1, full-length SARM1 (FL-SARM1) (Homo sapiens, UniProt Q6SZW1)
# T1 sequence (Q6SZW1 28-724): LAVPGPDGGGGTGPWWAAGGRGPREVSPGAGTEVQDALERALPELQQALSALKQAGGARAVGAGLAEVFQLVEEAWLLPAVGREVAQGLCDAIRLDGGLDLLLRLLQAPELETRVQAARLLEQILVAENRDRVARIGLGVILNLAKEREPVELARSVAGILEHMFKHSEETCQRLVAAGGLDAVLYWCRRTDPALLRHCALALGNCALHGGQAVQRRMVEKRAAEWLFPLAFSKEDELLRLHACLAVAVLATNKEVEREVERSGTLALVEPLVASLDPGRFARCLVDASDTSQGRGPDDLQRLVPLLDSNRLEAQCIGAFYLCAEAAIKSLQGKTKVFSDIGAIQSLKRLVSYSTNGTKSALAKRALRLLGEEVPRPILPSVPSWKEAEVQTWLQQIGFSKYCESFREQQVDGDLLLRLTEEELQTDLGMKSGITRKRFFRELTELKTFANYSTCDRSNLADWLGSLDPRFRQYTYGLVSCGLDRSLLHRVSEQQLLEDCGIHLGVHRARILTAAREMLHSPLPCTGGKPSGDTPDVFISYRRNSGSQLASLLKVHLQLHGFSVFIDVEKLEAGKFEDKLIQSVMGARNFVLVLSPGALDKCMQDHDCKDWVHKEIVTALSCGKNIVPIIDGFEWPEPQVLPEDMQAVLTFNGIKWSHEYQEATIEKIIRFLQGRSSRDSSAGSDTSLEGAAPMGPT
# Test: FL-SARM1 cellular lysate assay (NAD/NADH-Glo detection of remaining NAD+, NMN-activated)
# [1] = Activity (μM) (IC50), 11 point curve
# [2] = read-out: Activity (IC50 class), 11 point curve
# [3] = Activity (IC50 class), 11 point curve
SMILES,IC50 [1],IC50 [2],IC50 [3]
"Cc1ccc(NC(=O)N2[C@@H]3CC(C)C[C@H]2C3)cc1-c1ncccc1C (mixture of isomers) [Example 31, 3-methyl-N-(4-methyl-3-(3-methylpyridin-2-yl)phenyl)-6-azabicyclo[3.1.1]heptane-6-carboxamide]",0.8 µM,0.0001 to 1 µM,–
"Cc1ccc(NC(=O)N2CCCC3C2C3C(F)(F)F)cc1-c1ccccn1 (mixture of isomers) [Example 98, N-(4-methyl-3-pyridin-2-ylphenyl)-7-(trifluoromethyl)-2-azabicyclo[4.1.0]heptane-2-carboxamide]",20 µM,–,> 10 µM
"Cc1ccc(NC(=O)C2CC(C(F)(F)F)C2)cc1-c1ccccn1 (mixture of isomers) [Example 130, N-(4-methyl-3-pyridin-2-ylphenyl)-3-(trifluoromethyl)cyclobutane-1-carboxamide]",2.6 µM,–,1 to 10 µM
"Cc1ccc(NC(=O)C2CCC(C)CCN2c2ccccn2)cc1-c1ncccn1 (mixture of isomers) [Example 259, 5-methyl-N-(4-methyl-3-(pyrimidin-2-yl)phenyl)-1-(pyridin-2-yl)azepane-2-carboxamide]",5.8 µM,–,1 to 10 µM
"Cc1ccc(NC(=O)C2CC3CC3CN2c2ccccn2)cc1-c1ncc(F)cn1 (mixture of isomers) [Example 260, N-(3-(5-fluoropyrimidin-2-yl)-4-methylphenyl)-3-(pyridin-2-yl)-3-azabicyclo[4.1.0]heptane-4-carboxamide]",1.3 µM,–,1 to 10 µM
Cc1ccc(NC(=O)C2C3CCC2(c2ccn(C)n2)C3)cc1-c1ncc(F)cn1 (mixture of isomers) [Example 317],1 µM,–,1 to 10 µM
Cc1ccc(NC(=O)C2C3CCC2(c2ccccn2)C3)cc1-c1ncc(F)cn1 (mixture of isomers) [Example 318],1.5 µM,–,1 to 10 µM
"Cc1ccc(NC(=O)N2CC[C@@H]3[C@@H](C)[C@@H]3C2)cc1-c1ccccn1 (racemic) [Example 37, trans-7-methyl-N-(4-methyl-3-(pyridin-2-yl)phenyl)-3-azabicyclo[4.1.0]heptane-3-carboxamide]",0.1 µM,0.0001 to 1 µM,–
"COC(=O)[C@@H]1CC[C@@H]2C[C@H]1N2C(=O)Nc1ccc(C)c(-c2ccccn2)c1 (racemic) [Example 70, cis-methyl-6-((4-methyl-3-(pyridin-2-yl)phenyl)carbamoyl)-6-azabicyclo[3.1.1]heptane-2-carboxylate]",1.9 µM,–,1 to 10 µM
"Cc1nnc(C2CCCN2C(=O)Nc2ccc(C)c(-c3ccccn3)c2)o1 (racemic) [Example 87, 2-(5-methyl-1,3,4-oxadiazol-2-yl)-N-(4-methyl-3-pyridin-2-ylphenyl)pyrrolidine-1-carboxamide]",17 µM,–,> 10 µM
"Cc1ccc(NC(=O)N2CCCC2c2ccn(C)n2)cc1-c1ccccn1 (racemic) [Example 88, 2-(1-methylpyrazol-3-yl)-N-(4-methyl-3-pyridin-2-ylphenyl)pyrrolidine-1-carboxamide]",11 µM,–,> 10 µM
"Cc1ccc(NC(=O)N2CCCC2c2ccnn2C)cc1-c1ccccn1 (racemic) [Example 89, 2-(2-methylpyrazol-3-yl)-N-(4-methyl-3-pyridin-2-ylphenyl)pyrrolidine-1-carboxamide]",12 µM,–,> 10 µM
"Cc1ccc(NC(=O)N2CCCC2c2cnn(C)c2)cc1-c1ccccn1 (racemic) [Example 90, 2-(1-methylpyrazol-4-yl)-N-(4-methyl-3-pyridin-2-ylphenyl)pyrrolidine-1-carboxamide]",14 µM,–,> 10 µM
"Cc1ccc(NC(=O)N2CCCC2c2ncccn2)cc1-c1ccccn1 (racemic) [Example 91, N-(4-methyl-3-pyridin-2-ylphenyl)-2-pyrimidin-2-ylpyrrolidine-1-carboxamide]",16 µM,–,> 10 µM
"Cc1ccc(NC(=O)N2CCCC2C2CC2)cc1-c1ccccn1 (racemic) [Example 92, 2-cyclopropyl-N-(4-methyl-3-pyridin-2-ylphenyl)pyrrolidine-1-carboxamide]",2.3 µM,–,1 to 10 µM
"Cc1ccc(NC(=O)N2CCCC2c2nccn2C)cc1-c1ccccn1 (racemic) [Example 93, 2-(1-methylimidazol-2-yl)-N-(4-methyl-3-pyridin-2-ylphenyl)pyrrolidine-1-carboxamide]",21 µM,–,> 10 µM

SMILES,IC50 [1],IC50 [2],IC50 [3]
"CC[C@H]1C[C@@H]1C(=O)Nc1ccc(C)c(-c2ccccn2)c1 (racemic) [Example 108, trans-2-ethyl-N-(4-methyl-3-pyridin-2-ylphenyl)cyclopropane-1-carboxamide]",1.1 µM,–,1 to 10 µM
"Cc1ccc(NC(=O)C2CCC2(F)F)cc1-c1ccccn1 (racemic) [Example 111, 2,2-difluoro-N-(4-methyl-3-pyridin-2-ylphenyl)cyclobutane-1-carboxamide]",2.8 µM,–,1 to 10 µM
"Cc1ccc(NC(=O)C2CCC23CC3)cc1-c1ccccn1 (racemic) [Example 113, N-(4-methyl-3-pyridin-2-ylphenyl)spiro[2.3]hexane-6-carboxamide]",2.5 µM,–,1 to 10 µM
"Cc1ccc(NC(=O)[C@@H]2C[C@H]3C[C@H]32)cc1-c1ccccn1 (racemic) [Example 116, trans-N-(4-methyl-3-pyridin-2-ylphenyl)bicyclo[2.1.0]pentane-2-carboxamide]",7.4 µM,–,1 to 10 µM
"Cc1ccc(NC(=O)C(C)(O)C2CCC2)cc1-c1ccccn1 (racemic) [Example 118, 2-cyclobutyl-2-hydroxy-N-(4-methyl-3-pyridin-2-ylphenyl)propanamide]",6.1 µM,–,1 to 10 µM
"Cc1ccc(NC(=O)[C@@H]2C[C@@H]2C(F)(F)F)cc1-c1ccccn1 (racemic) [Example 124, cis-N-(4-methyl-3-pyridin-2-ylphenyl)-2-(trifluoromethyl)cyclopropane-1-carboxamide]",3.1 µM,–,1 to 10 µM
"Cc1ccc(NC(=O)[C@H]2C[C@@H]2C(F)(F)F)cc1-c1ccccn1 (racemic) [Example 128, trans-N-(4-methyl-3-pyridin-2-ylphenyl)-2-(trifluoromethyl)cyclopropane-1-carboxamide]",4.3 µM,–,1 to 10 µM
"Cc1ccc(NC(=O)[C@H]2[C@H](C)C2(F)F)cc1-c1ccccn1 (racemic) [Example 135, trans-2,2-difluoro-3-methyl-N-(4-methyl-3-pyridin-2-ylphenyl)cyclopropane-1-carboxamide]",3.3 µM,–,1 to 10 µM
"Cc1ccc(NC(=O)C(C)C(F)(F)F)cc1-c1ncccn1 (racemic) [Example 169, 3,3,3-trifluoro-2-methyl-N-(4-methyl-3-pyrimidin-2-ylphenyl)propanamide]",21 µM,–,> 10 µM
"Cc1cc(F)c(NC(=O)N2[C@@H]3C[C@@H](C)C[C@@]2(C(C)(C)O)C3)cc1-c1ncc(F)cn1 (racemic) [Example 183, cis-N-(2-fluoro-5-(5-fluoropyrimidin-2-yl)-4-methylphenyl)-1-(2-hydroxypropan-2-yl)-3-methyl-6-azabicyclo[3.1.1]heptane-6-carboxamide]",0.06 µM,0.0001 to 1 µM,–
"Cc1ccc(NC(=O)N2CCCC(C)CC2)cc1-c1ncc(F)cn1 (racemic) [Example 213, N-(3-(5-fluoropyrimidin-2-yl)-4-methylphenyl)-4-methylazepane-1-carboxamide]",0.2 µM,0.0001 to 1 µM,–
"Cc1ccc(NC(=O)N(C)C(c2ncccn2)C2CCC2)cc1-c1ncc(F)cn1 (racemic) [Example 214, 1-(cyclobutyl(pyrimidin-2-yl)methyl)-3-(3-(5-fluoropyrimidin-2-yl)-4-methylphenyl)-1-methylurea]",3.9 µM,–,1 to 10 µM
"Cc1ccc(NC(=O)N2C[C@@H]3CCC[C@@H]32)cc1-c1ncc(F)cn1 (racemic) [Example 222, N-[3-(5-fluoropyrimidin-2-yl)-4-methylphenyl]-6-azabicyclo[3.2.0]heptane-6-carboxamide]",3.4 µM,–,1 to 10 µM
"Cc1ccc(NC(=O)N2CCOCCC2C)cc1-c1ncc(F)cn1 (racemic) [Example 225, N-[3-(5-fluoropyrimidin-2-yl)-4-methylphenyl]-5-methyl-1,4-oxazepane-4-carboxamide]",32 µM,–,> 10 µM
"Cc1ccc(NC(=O)N2C[C@@H]3CCCC[C@@H]32)cc1-c1ncc(F)cn1 (racemic) [Example 226, N-[3-(5-fluoropyrimidin-2-yl)-4-methylphenyl]-7-azabicyclo[4.2.0]octane-7-carboxamide]",1.5 µM,–,1 to 10 µM
"Cc1ccc(NC(=O)N2[C@@H]3C[C@@H](C)C[C@@]2(COC(F)F)C3)cc1-c1ncc(F)cn1 (racemic) [Example 227, cis-1-(difluoromethoxymethyl)-N-[3-(5-fluoropyrimidin-2-yl)-4-methylphenyl]-3-methyl-6-azabicyclo[3.1.1]heptane-6-carboxamide]",0.02 µM,0.0001 to 1 µM,–
